Measurements as given in patent US20030055018A1, “Modulation of phosphoinositide 3-kinase activity” (priority 2001, published 2003).

Tests used:
PI3K/Akt pathway = assay: Akt activation in transfected NIH3T3 cells (H2B phosphorylation by immunoprecipitated FLAG-Akt, or Akt Thr308 immunoblot); type: cell-based, mouse
Description: Specifically, to show whether membrane-associated full-length p85 is functionally similar to the carboxy-terminally truncated protein the p85 fused at its amino-terminus to a peptide encoding the Src myristoylation signal (Myrp85-WT) (FIG. 2A), was transiently expressed in NIH3T3 cells in combination with FLAG-Akt or FLAG-Akt plus H-Ras. Myrp85Δonc was used as a control. The cells were lysed forty-eight hours later, following overnight serum starvation. Akt activation in this, and subsequent experiments, was determined by measuring the phosphorylation of histone 2B (H2B) by immunoprecipitated Akt.
Akt/PKB activation by phosphorylation strictly depends on the binding of the Akt PH domain to PtdIns-3,4,5-P3 and therefore, indirectly measures intracellular PtdIns-3,4,5-P3 levels (Chan et al., 1999, Ann Rev Biochem 68, 965-1015). Akt/PKB kinase activation was determined either by measuring the phosphorylation of Akt at Thr308 using an antibody from Cell Signaling Technology or by measuring the kinase activity of immunoprecipitated FLAG-tagged wild type Akt. The activity of immunoprecepitated Akt was measured using Histone 2B as the substrate, and following previously described protocols (Bellacosa et al., 1998, Oncogene 17, 313-25; Franke et al., 1995, Cell 81, 727-736) with slight modifications. Briefly, cells were lysed on ice using a NP40 lysis buffer (25 mM Tris-HCl pH 7.6, 137 mM NaCl, 10% glycerol, 1% NP40, 10 mM NaF) freshly supplemented with 1 mM Sodium pyrophosphate, 5 μg/ml leupeptin, 5 μg/ml aprotinin, 1 mM EDTA, 10 mM PMSF, 1 mM NaVO4 and 1 mM DTT. […] The phosphorylated Histone H2B was visualized by autoradiography and quantitated by Phosphorlmager (Molecular Dynamics). Akt expression was determined by probing the membranes with a polyclonal rabbit anti-Akt antibody.
Specific Akt kinase activity was determined by Phosphorimager-quantitation of the ^32P-phosphorylated Akt substrate Histone 2B, and by quantification of Akt in anti-Akt immunoprecipitates using a laser densitometry scanner (Molecular Dynamics). […]

PI3K = assay: PtdIns-3,4,5-P3 measured by thin layer chromatography in lipid extracts of 32P-labeled transfected NIH3T3 cells; type: cell-based, mouse; details: construct co-transfected with constitutively-active H-Ras G12V; serum-free; 32P-orthophosphate 1.5 h
Description: In FIG. 1, it is shown that p85 inhibits while p85Δonc enhances PI3K activation by small GTPases. (A) Schematic diagrams and expression of transiently transfected HA-tagged p85-WT and p85Δonc constructs. (B) Upper panel. p85-WT inhibits while p85Δonc enhances HRas-induced PtdIns-3, 4, 5-P3 production. The indicated constructs were transiently transfected into NIH3T3 cells. Sixteen hours after transfection, the cells were cultured in serum-free media. Five hours later, they were labeled with ^32P-orthophosphate for 1.5 hours. Total phospholipids were analyzed by thin layer chromatography. (B) Lower panel. p85-WT inhibits while p85Δonc enhances H-Ras induced Akt phosphorylation. Immunoblots of cell extracts from duplicate transfections were probed with an antibody that recognizes Akt phosphorylated at Thr308 or with antibodies that recognize the proteins expressed from the transfected constructs. […] NIH3T3 cells were transiently transfected with the indicated constructs. ^32P-labeled PtdIns-3, 4, 5-P3 was measured as described in B. Akt phosphorylation at Thr308 and expression of transfected constructs were determined by probing immunoblots with the corresponding antibodies. […]
PtdIns-3, 4, 5-P3 was measured in lipid extracts of ^32P-labeled NIH3T3 cells by thin layer chromatography (Maehama et al., 1998, J Biol Chem 273, 13375-8). […]

HaCaT cells = assay: Suspension survival assay of HaCaT keratinocytes; type: cell-based, human
Description: FIG. 8 is presented to complementary roles of tyrosine kinase and small GTPase signals induced by integrin or growth factor stimulation, in PI3K/Akt activation and cell survival. […] Akt kinase activity in cell lysates harvested 30 minutes later was measured by in vitro phosphorylation of H2B. […] HaCaT cells or HaCaT cells stably-expressing activated H-Ras G12V were cultured on 0.9% agarose in MCDB base medium. EGF was used at 2 nM concentration in the indicated culltures. Cell aliquots were removed after 6 hours in suspension for immunoblot analysis. Cell viability was examined after 10 days in suspension as described (Jost et al., 2001, Mol Biol Cell 12, 1519-27). (C) A model of PI3K activation by tyrosine kinase- and small GTPase signals. According to this model, p85 binds, via its cSH2 motif, tyrosine phosphorylated proteins and undergoes phosphorylation at Y688. Phosphorylation at this site, functionally inactivates the p85 inhibitory domain. Neutralization of the inhibitory domain renders p85 responsive to PI3K activation signals that are transduced by small GTPases.
These experiments were carried out in serum-free define media. The constitutively-active H-Ras G12V activates the PI3K/Akt pathway and rescues cells from anoikis only in suspension cultures supplemented with epidermal growth factor (EGF) (FIG. 8B). […] Thus, PI3K/Akt activation and inhibition of anoikis depend on the combination of tyrosine kinase and small GTPase signals.
Suspension survival assay were performed as previously described (Jost et al., 2001, Mol Biol Cell 12, 1519-27). […] Cell viability was measured after 10 days in suspension. Cell viability was analysed by crystal violet staining of cells reseeded after 10 days of suspension culture onto tissue culture-treated plastic and allowed to grow for 3 days. […]

Substance	PI3K activation by Ras signals in the presence of NM-Src (PI3K/Akt pathway; H-Ras-G12V plus NM-Src, PtdIns-3,4,5-P3 and Akt Thr308)	H-Ras induced Akt phosphorylation at Thr308 (PI3K/Akt pathway; co-transfected with H-Ras G12V, immunoblot)	PI3K/Akt activation by H-Ras (Akt kinase activity, H2B phosphorylation) (PI3K/Akt pathway; co-transfected with constitutively-active H-Ras and FLAG-Akt, overnight serum starvation)	H-Ras-induced PtdIns-3, 4, 5-P3 production (PI3K)	Long-term cell survival (10 days) in suspension, cells expressing activated H-Ras G12V (HaCaT cells; EGF 2 nM, serum-free defined medium)	Rescue from anoikis, HaCaT cells without H-Ras G12V (HaCaT cells; EGF alone, 2 nM)	PI3K/Akt activation, HaCaT cells without H-Ras G12V (HaCaT cells; EGF alone, 2 nM, 6 hours in suspension)
p85-WT: HA-tagged construct of wild-type p85, regulatory subunit of PI3K	does not inhibit	inhibits	blocks	inhibits	–	–	–
epidermal growth factor (NSDSECPLSHDGYCLHDGVCMYIEALDKYACNCVVGYIGERCQYRDLKWWELR; Epidermal growth factor; UniProt P01133 971-1023, looked up) [EGF]	–	–	–	–	cooperate to support long-term cell survival	failed to rescue	inefficient
